Measured values published in patent US11098061B2 (Celgene CAR LLC, priority 2013, dated 2021).

Legend:
[1] = target: p38a activated, mitogen-activated protein kinase-activated protein kinase 2 (MAPKAP-K2 or MK-2) enzyme (Homo sapiens (Human), UniProt P49137); experiment: MK2 Omnia continuous-read kinase assay for compound potency; format: biochemical; conditions: [MK-2]=0.4 nM, [ATP]=1.0 mM, [ST3-Sox]=10 μM
Source text: The protocol below describes a continuous-read kinase assay optimized to measure potency of compounds against p38a activated, mitogen-activated protein kinase-activated protein kinase 2 (MAPKAP-K2 or MK-2) enzyme. The mechanics of the assay platform are best described by the vendor (Invitrogen, Carlsbad, Calif.) on their website at the following URL: invitrogen.com/search/global/searchAction. action?resultPage=1 &resultsPerPage=15 &query=om nia&personaFilterTerm=Support+%26+Troubleshoot
Kinase reactions were started with the addition of 40 μL of MK-2 enzyme and monitored every 71 seconds for 30-240 minutes at λex360/λem485 in a Synergy^2, Synergy^4 or Synergy H^4 plate reader from BioTek (Winooski, Vt.). […] Initial velocity (0 minutes to +30 minutes) from each reaction was estimated from the slope of a plot of relative fluorescence units vs time (minutes) and normalized to the no enzyme and no inhibitor control groups for % Inhibition. The resulting % Inhibition values were then plotted against inhibitor concentration to estimate IC50 from log[Inhibitor] vs Response, Variable Slope model in GraphPad Prism from GraphPad Software (San Diego, Calif.).
[MK-2]=0.4 nM, [ATP]=1.0 mM and [ST3-Sox]=10 μM (ATP ^appKM=8-10 μM)

MK2 = MK2 (Homo sapiens (Human), UniProt P49137); experiment: MK2 modification assessment by whole protein mass spectrometry; format: binding; conditions: intact MK2, 60 min, 10-fold excess of compound to protein
Chain of MK2 (P49137 whole entry): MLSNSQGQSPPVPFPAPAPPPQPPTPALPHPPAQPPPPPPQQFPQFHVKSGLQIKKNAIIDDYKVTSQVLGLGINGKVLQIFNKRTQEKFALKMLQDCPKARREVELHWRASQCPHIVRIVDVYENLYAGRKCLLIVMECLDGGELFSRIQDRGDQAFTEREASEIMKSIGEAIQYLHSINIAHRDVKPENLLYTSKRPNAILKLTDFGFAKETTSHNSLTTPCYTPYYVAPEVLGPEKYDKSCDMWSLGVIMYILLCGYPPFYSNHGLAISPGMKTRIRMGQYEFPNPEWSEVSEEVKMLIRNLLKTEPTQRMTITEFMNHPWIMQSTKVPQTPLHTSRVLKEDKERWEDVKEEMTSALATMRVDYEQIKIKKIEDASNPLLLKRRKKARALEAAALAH
Procedure: Modification of MK2 is measured by whole protein MS analysis. […] 5 μL aliquots of the samples were diluted with 15 μL of 0.2% TFA prior to micro C4 ZipTipping directly onto the MALDI target using sinapinic acid as the desorption matrix (10 mg/ml in 0.1% TFA:Acetonitrile 50:50). Analysis was performed on a AB Sciex 4800 MALDI TOF/TOF retro fitted with an HM2 detector (CovalX). Percent modification of target MK2 (i.e., the percent of total MK2 modified by the test compound) for each compound was calculated by subtracting the centroid mass of the compound treated MK2 from the centroid mass of the control MK2 and dividing that value with the mass of the compound.

Chain of p38a activated, mitogen-activated protein kinase-activated protein kinase 2 (MAPKAP-K2 or MK-2) enzyme (P49137 whole entry): as above

Row | Compound | IC50 [1] | MK2 Mass Mod (MK2)
1 | C=CC(=O)Nc1cc(Nc2c(C)c(NC3CCCNC3)nc3ccnn23)ccc1OCC (stereo not shown) [IV-1, N-(2-ethoxy-5-((6-methyl-5-(piperidin-3-ylamino)pyrazolo [1,5-a]pyrimidin-7-yl)amino)phenyl)acrylamide] | 501 to 999 nM | G (mass modification ≤30%)
2 | C=CC(=O)Nc1cc(-c2cc3c(cn2)CCc2c4c(n(C)c2-3)CC2(CC2)NC4=O)ccc1OCCOC [II-7, N-(2-(2-methoxyethoxy)-5-(11′-methyl-7′-oxo-5′,6′,7′,8′,10′,11′-hexahydrospiro[cyclopropane-1,9′-pyrido[3′,4′:4,5]pyrrolo[2,3-f]isoquinolin]-2′-yl)phenyl)acrylamide] | 101 to 500 nM | E (mass modification of ≥70%)
3 | C=CC(=O)NC1CN(C)CC1NC(=O)c1ccc2sc3c(c2c1)NC[C@@H](C)NC3=O (stereo partly shown) [III-50] | < 100 nM | G (mass modification ≤30%)
4 | CC(C)=CC(=O)COc1cc(NC(=O)c2ccc3sc4c(c3c2)NC[C@@H](C)NC4=O)ccc1F [III-2, (R)—N-(4-fluoro-3-((4-methyl-2-oxopent-3-en-1-yl)oxy)phenyl)-3-methyl-5-oxo-2,3,4,5-tetrahydro-1H-benzo[4,5]thieno[3,2-e][1,4]diazepine-9-carboxamide] | > 1000 nM | G (mass modification ≤30%)
5 | C=CC(=O)NCc1csc(NC(=O)c2ccc3cc4n(c3c2)C2(CCC2)CNC4=O)n1 [Compound V-43, N-(4-(acrylamidomethyl)thiazol-2-yl)-1′-oxo-2′,3′-dihydro-1′H-spiro[cyclobutane-1,4′-pyrazino[1,2-a]indole]-7′-carboxamide] | > 1000 nM | G (mass modification ≤30%)
6 | C=CC(=O)Nc1ccc2[nH]c(-c3ccc4cc5n(c4c3)C3(CCC3)CNC5=O)nc2c1 [Compound V-59, N-(2-(1′-oxo-2′,3′-dihydro-1′H-spiro[cyclobutane-1,4′-pyrazino [1,2-a]indol]-7′-yl)-1H-benzo[d]imidazol-5-yl)acrylamide] | < 100 nM | G (mass modification ≤30%)
7 | C=CC(=O)N1CC(C)(C)Oc2ccc(-c3ccc4c(ccc5sc6c(c54)NC[C@@H](C)NC6=O)n3)cc21 [III-55, (R)-3-(4-acryloyl-2,2-dimethyl-3,4-dihydro-2H-benzo[b][1,4]oxazin-6-yl)-10-methyl-9,10,11,12-tetrahydro-8H-[1,4]diazepino[5′,6′:4,5]thieno[3,2-f]quinolin-8-one] | < 100 nM | G (mass modification ≤30%)
8 | C=CC(=O)N1CCOc2ccc(-c3ncc4c(n3)-c3[nH]c5c(c3CC4)C(=O)NCC5)cc21 [II-24, 2-(4-acryloyl-3,4-dihydro-2H-benzo[b][1,4]oxazin-6-yl)-8,9,10,11-tetrahydro-SH-pyrido[3′,4′:4,5]pyrrolo[3,2-h]i quinazolin-7(6H)-one] | < 100 nM | E (mass modification of ≥70%)
9 | C=CC(=O)Nc1cc(-c2cc(Nc3c(N[C@H](C)c4ccccc4)c(=O)c3=O)ccn2)ccc1OC [VI-9, (R)—N-(5-(4-((3,4-dioxo-2-((1-phenylethyl)amino)cyclobut-1-en-1-yl)amino)pyridin-2-yl)-2-methoxyphenyl)acrylamide] | > 1000 nM | G (mass modification ≤30%)
10 | C[C@@H]1CNc2c(sc3ccc(C(=O)Nc4ccc5c(c4)N(C(=O)/C=C/CN(C)C)CCO5)cc23)C(=O)N1 [III-9, (R,E)-N-(4-(4-(dimethylamino)but-2-enoyl)-3,4-dihydro-2H-benzo[b][1,4]oxazin-6-yl)-3-methyl-5-oxo-2,3,4,5-tetrahydro-1H-benzo[4,5]thieno[3,2-e][1,4]diazepine-9-carboxamide] | > 1000 nM | F (mass modification of 31-69%)
11 | C=CC(=O)N1CCOc2ncc(-c3nccc(-c4cc5c([nH]4)CCNC5=O)n3)cc21 [II-23, 2-(2-(1-acryloyl-2,3-dihydro-1H-pyrido[2,3-b][1,4]oxazin-7-yl)pyrimidin-4-yl)-6,7-dihydro-1H-pyrrolo[3,2-c]pyridin-4(5H)-one] | < 100 nM | E (mass modification of ≥70%)
